Experimental data reported in patent publication US20150366890A1, “COMPOSITIONS AND METHODS FOR TREATING FUNGAL INFECTIONS” (TRUSTEES OF BOSTON UNIVERSITY, priority 2013, published 2015).

Tested on: S. cerevisiae single-deletion yeast strains
Experiment: High-throughput 96-well screen of AF sensitivity of single-gene knockouts (CFU at start and after 8 hours)
Type: cell-based
Experimental: To identify genes critical to AF action, the AF sensitivity of single-gene knockouts identified through the common transcriptional analysis were identified. In the first pass-through, 56 testable genes were identified. This set was later expanded to include targets identified through phenotypic analysis and metabolomic profiling, for a total of 84 target genes (Table 2). The initial 56 targets were tested using a rapid high-throughput 96-well assay with AMB and MCZ to identify single-gene knockouts with elevated resistance to AFs (Table 2). Knockouts that were more resistant to at least one of the AFs were tested individually using the 24-well colony forming (CF) assay. Target genes selected after the initial 56 strains were assayed individually using the 24-well CF assay.
The first 56 S. cerevisiae strains were acquired from the deletion library and stored in 96-well plates in replicates of three. To start the assay, the plates were defrosted and 10 μl of stored cells were inoculated into 100 μl of fresh synthetic dextrose complete (SDC) media for 16 hours. These overnight cultures were diluted into a fresh 96-well plate with 100 μl of SDC to achieve an OD600 of approximately 0.2. Colony forming units (CFU) in each well were measured at the start of the assay and after 8 hours of incubation. The AF susceptibility of each strain was compared to that of wildtype. Strains with significant susceptibility differences from wildtype were assayed in 0.5 ml of SDC media using the 24-well plate CF assay described above.

C[C@@H]1[C@H](O)[C@@H](C)/C=C/C=C/C=C/C=C/C=C/C=C/C=C/[C@H](O[C@@H]2O[C@H](C)[C@@H](O)[C@H](N)[C@@H]2O)C[C@@H]2O[C@](O)(C[C@@H](O)C[C@@H](O)[C@H](O)CC[C@@H](O)C[C@@H](O)CC(=O)O[C@H]1C)C[C@H](O)[C@H]2C(=O)O [AMB, amphotericin B]
96 Well Screen, AF susceptibility vs wildtype (S. cerevisiae PAB101, WT): Normal | 96 Well Screen, AF susceptibility vs wildtype (S. cerevisiae PAB102, HSP104 deletion): Resistant (″Resistant″ or ″Sensitive″ indicate at least a 5-fold CFU difference from wildtype at the final time point) | 96 Well Screen, AF susceptibility vs wildtype (S. cerevisiae PAB103, SDH2 deletion): Resistant (″Resistant″ or ″Sensitive″ indicate at least a 5-fold CFU difference from wildtype at the final time point) | 96 Well Screen, AF susceptibility vs wildtype (S. cerevisiae PAB104, FRE8 deletion): Resistant (″Resistant″ or ″Sensitive″ indicate at least a 5-fold CFU difference from wildtype at the final time point) | 96 Well Screen, AF susceptibility vs wildtype (S. cerevisiae PAB105, CHA4 deletion): Resistant (″Resistant″ or ″Sensitive″ indicate at least a 5-fold CFU difference from wildtype at the final time point) | 96 Well Screen, AF susceptibility vs wildtype (S. cerevisiae PAB106, FMS1 deletion): Resistant (″Resistant″ or ″Sensitive″ indicate at least a 5-fold CFU difference from wildtype at the final time point) | 96 Well Screen, AF susceptibility vs wildtype (S. cerevisiae PAB107, NDE1 deletion): Resistant (″Resistant″ or ″Sensitive″ indicate at least a 5-fold CFU difference from wildtype at the final time point) | 96 Well Screen, AF susceptibility vs wildtype (S. cerevisiae PAB108, ALD3 deletion): Resistant (″Resistant″ or ″Sensitive″ indicate at least a 5-fold CFU difference from wildtype at the final time point) | 96 Well Screen, AF susceptibility vs wildtype (S. cerevisiae PAB109, GAD1 deletion): Normal | 96 Well Screen, AF susceptibility vs wildtype (S. cerevisiae PAB110, PGM3 deletion): Normal | 96 Well Screen, AF susceptibility vs wildtype (S. cerevisiae PAB111, PYK2 deletion): Resistant (″Resistant″ or ″Sensitive″ indicate at least a 5-fold CFU difference from wildtype at the final time point) | 96 Well Screen, AF susceptibility vs wildtype (S. cerevisiae PAB112, MNE1 deletion): Normal | 96 Well Screen, AF susceptibility vs wildtype (S. cerevisiae PAB113, FUM1 deletion): Normal | 96 Well Screen, AF susceptibility vs wildtype (S. cerevisiae PAB114, TPK2 deletion): Normal | 96 Well Screen, AF susceptibility vs wildtype (S. cerevisiae PAB115, ATG29 deletion): Resistant (″Resistant″ or ″Sensitive″ indicate at least a 5-fold CFU difference from wildtype at the final time point) | 96 Well Screen, AF susceptibility vs wildtype (S. cerevisiae PAB116, ISU1 deletion): Resistant (″Resistant″ or ″Sensitive″ indicate at least a 5-fold CFU difference from wildtype at the final time point) | 96 Well Screen, AF susceptibility vs wildtype (S. cerevisiae PAB117, CYC7 deletion): Normal | 96 Well Screen, AF susceptibility vs wildtype (S. cerevisiae PAB118, ARN1 deletion): Normal | 96 Well Screen, AF susceptibility vs wildtype (S. cerevisiae PAB119, CIT2 deletion): Resistant (″Resistant″ or ″Sensitive″ indicate at least a 5-fold CFU difference from wildtype at the final time point) | 96 Well Screen, AF susceptibility vs wildtype (S. cerevisiae PAB120, HSP30 deletion): Normal | 96 Well Screen, AF susceptibility vs wildtype (S. cerevisiae PAB121, SDH1 deletion): Normal | 96 Well Screen, AF susceptibility vs wildtype (S. cerevisiae PAB122, TPK3 deletion): Resistant (″Resistant″ or ″Sensitive″ indicate at least a 5-fold CFU difference from wildtype at the final time point) | 96 Well Screen, AF susceptibility vs wildtype (S. cerevisiae PAB123, ISU2 deletion): Normal | 96 Well Screen, AF susceptibility vs wildtype (S. cerevisiae PAB124, TPK1 deletion): Normal | 96 Well Screen, AF susceptibility vs wildtype (S. cerevisiae PAB125, MID2 deletion): Normal | 96 Well Screen, AF susceptibility vs wildtype (S. cerevisiae PAB126, SSK1 deletion): Sensitive (″Resistant″ or ″Sensitive″ indicate at least a 5-fold CFU difference from wildtype at the final time point) | 96 Well Screen, AF susceptibility vs wildtype (S. cerevisiae PAB127, HSP42 deletion): Normal | 96 Well Screen, AF susceptibility vs wildtype (S. cerevisiae PAB128, PIG1 deletion): Normal | 96 Well Screen, AF susceptibility vs wildtype (S. cerevisiae PAB130, UGA1 deletion): Resistant (″Resistant″ or ″Sensitive″ indicate at least a 5-fold CFU difference from wildtype at the final time point) | 96 Well Screen, AF susceptibility vs wildtype (S. cerevisiae PAB131, MTL1 deletion): Normal | 96 Well Screen, AF susceptibility vs wildtype (S. cerevisiae PAB132, CIT3 deletion): Resistant (″Resistant″ or ″Sensitive″ indicate at least a 5-fold CFU difference from wildtype at the final time point) | 96 Well Screen, AF susceptibility vs wildtype (S. cerevisiae PAB133, ZWF1 deletion): Normal | 96 Well Screen, AF susceptibility vs wildtype (S. cerevisiae PAB134, SUM1 deletion): sensitive | 96 Well Screen, AF susceptibility vs wildtype (S. cerevisiae PAB135, NDI1 deletion): Resistant (″Resistant″ or ″Sensitive″ indicate at least a 5-fold CFU difference from wildtype at the final time point) | 96 Well Screen, AF susceptibility vs wildtype (S. cerevisiae PAB136, PGM2 deletion): Normal | 96 Well Screen, AF susceptibility vs wildtype (S. cerevisiae PAB137, HFD1 deletion): Normal | 96 Well Screen, AF susceptibility vs wildtype (S. cerevisiae PAB138, PUF2 deletion): Normal | 96 Well Screen, AF susceptibility vs wildtype (S. cerevisiae PAB139, TDH1 deletion): Sensitive (″Resistant″ or ″Sensitive″ indicate at least a 5-fold CFU difference from wildtype at the final time point) | 96 Well Screen, AF susceptibility vs wildtype (S. cerevisiae PAB140, GUD1 deletion): Sensitive (″Resistant″ or ″Sensitive″ indicate at least a 5-fold CFU difference from wildtype at the final time point) | 96 Well Screen, AF susceptibility vs wildtype (S. cerevisiae PAB141, ATG15 deletion): Sensitive (″Resistant″ or ″Sensitive″ indicate at least a 5-fold CFU difference from wildtype at the final time point) | 96 Well Screen, AF susceptibility vs wildtype (S. cerevisiae PAB142, TDH2 deletion): Sensitive (″Resistant″ or ″Sensitive″ indicate at least a 5-fold CFU difference from wildtype at the final time point) | 96 Well Screen, AF susceptibility vs wildtype (S. cerevisiae PAB143, ATP1 deletion): Sensitive (″Resistant″ or ″Sensitive″ indicate at least a 5-fold CFU difference from wildtype at the final time point) | 96 Well Screen, AF susceptibility vs wildtype (S. cerevisiae PAB144, UGA2 deletion): Sensitive (″Resistant″ or ″Sensitive″ indicate at least a 5-fold CFU difference from wildtype at the final time point) | 96 Well Screen, AF susceptibility vs wildtype (S. cerevisiae PAB145, CIT1 deletion): Resistant (″Resistant″ or ″Sensitive″ indicate at least a 5-fold CFU difference from wildtype at the final time point) | 96 Well Screen, AF susceptibility vs wildtype (S. cerevisiae PAB146, SOLI deletion): Normal | 96 Well Screen, AF susceptibility vs wildtype (S. cerevisiae PAB147, PAN6 deletion): Normal | 96 Well Screen, AF susceptibility vs wildtype (S. cerevisiae PAB148, SOL4 deletion): Normal | 96 Well Screen, AF susceptibility vs wildtype (S. cerevisiae PAB149, YAK1 deletion): Sensitive (″Resistant″ or ″Sensitive″ indicate at least a 5-fold CFU difference from wildtype at the final time point) | 96 Well Screen, AF susceptibility vs wildtype (S. cerevisiae PAB150, PBS2 deletion): Sensitive (″Resistant″ or ″Sensitive″ indicate at least a 5-fold CFU difference from wildtype at the final time point) | 96 Well Screen, AF susceptibility vs wildtype (S. cerevisiae PAB152, GPD1 deletion): Sensitive (″Resistant″ or ″Sensitive″ indicate at least a 5-fold CFU difference from wildtype at the final time point) | 96 Well Screen, AF susceptibility vs wildtype (S. cerevisiae PAB153, SHO1 deletion): Sensitive (″Resistant″ or ″Sensitive″ indicate at least a 5-fold CFU difference from wildtype at the final time point) | 96 Well Screen, AF susceptibility vs wildtype (S. cerevisiae PAB154, FET3 deletion): Sensitive (″Resistant″ or ″Sensitive″ indicate at least a 5-fold CFU difference from wildtype at the final time point) | 96 Well Screen, AF susceptibility vs wildtype (S. cerevisiae PAB155, FBP1 deletion): Sensitive (″Resistant″ or ″Sensitive″ indicate at least a 5-fold CFU difference from wildtype at the final time point) | 96 Well Screen, AF susceptibility vs wildtype (S. cerevisiae PAB156, COX6 deletion): Sensitive (″Resistant″ or ″Sensitive″ indicate at least a 5-fold CFU difference from wildtype at the final time point)
